From patent publication US20260001892A1, “COMPOUND FOR REGULATING AND CONTROLLING ACTIVITY OF 15-PGDH AND PREPARATION METHOD THEREFOR” (SCINNOHUB PHARMACEUTICAL CO., LTD., priority 2022, published 2026) come the findings set out here.

Sequence of 15-PGDH (P15428 whole entry): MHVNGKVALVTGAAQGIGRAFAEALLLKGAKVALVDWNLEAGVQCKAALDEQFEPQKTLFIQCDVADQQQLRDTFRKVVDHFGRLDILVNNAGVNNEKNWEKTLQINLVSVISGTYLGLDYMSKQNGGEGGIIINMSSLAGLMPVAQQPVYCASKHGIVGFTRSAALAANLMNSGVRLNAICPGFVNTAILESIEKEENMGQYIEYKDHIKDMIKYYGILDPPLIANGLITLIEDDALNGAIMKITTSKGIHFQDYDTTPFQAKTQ

This experiment addresses 15-PGDH (Homo sapiens (Human), UniProt P15428). The experiment can be described thus: Detection of activity of 15-PGDH enzyme. It counts as biochemical. The settings on record: inhibitory activity against 15-PGDH enzyme; substrates β-NAD and PGF2α; fluorescence Ex/Em=340/450. On the procedure:
• a. A solution of pH 7.5 containing 50 mM Tris-HCl, 0.01% Tween 20 was prepared with ultrapure water as a reaction buffer; • b. A 10 mM mother liquor of the compound to be tested was prepared with DMSO, and then the reaction buffer was used to dilute the mother liquor of the compound to be tested to obtain solution 1 of the compound to be tested at a concentration of 40,000 nM, and then the solution 1 of the compound to be tested was serially diluted into solutions 2-9 (or 2-12) of the compound to be tested at 9 (or 11) concentrations with a gradient difference of three-fold. 5 μL of each concentration of solutions of the compound to be tested was respectively taken and added into a 384-well plate as test wells; • c. 5 μL of the reaction buffer was then added to the blank wells of the 384-well plate as positive control and blank control wells, respectively; • d. The reaction buffer was used to prepare a 15-PGDH protein solution at a concentration of 5 ng/μL, 5 μL of the 15-PGDH protein solution was taken and added to the test wells and positive control wells, and meanwhile 5 μL of the reaction buffer was added to the blank control wells, then the plate was centrifuged at 2000 rpm for 30 seconds; • e. The reaction buffer was used to prepare 5 mM $3-NAD and 2 mM PGF2α, respectively, which were mixed at 1:1 by volume to obtain a substrate mixture, 10 μL of the substrate mixture was taken and added to the test wells, positive control wells and blank control wells to start the reaction; • f. The fluorescence signal value (Ex/Em=340/450) of each well was detected continuously by using a multifunctional microplate reader.
• a) Continuous fluorescence signal values were analyzed by using the “kinetic calculations-slope calculation method” in the PHERAstar Data analysis software to obtain the slope of each test well; • b) The inhibition rate % was calculated by using the following formula: inhibition rate %=[1−(slope of test well-signal value of positive control well)/(signal value of blank control well-average signal value of positive control well)]×100%. • c) Calculation of IC50 and plotting of inhibition rate-dose curves: IC50 values were calculated by fitting compound concentrations and corresponding inhibition rates with a nonlinear regression (dose response-variable slope) via using GraphPad Prism 6.0. The formula was shown below:
Y=Bottom+(Top−Bottom)/(1+10^((Log IC50−X)*HillSlope)), wherein X is a log value of a concentration of the compound, and Y is inhibition rate %.
For `Cc1noc(C)c1-c1cnc2c(C(F)(F)F)c(C(=O)N3CCCCC3)sc2n1` [Example 70], the IC50 was in the range of 0.01 to 0.02 µM. `O=C(c1sc2nc(-c3cccs3)cnc2c1C1CC1)N1CCCCC1` [Example 17] yielded an IC50 of 0.003 to 0.01 µM. In the case of `O=C(c1sc2nc(-c3cnc(N4CCOCC4)nc3)cnc2c1C(F)(F)F)N1CCCCC1` [Example 89] it was 0.01 to 0.02 µM. With `O=C(c1sc2nc(-c3ccnc(F)c3)cnc2c1C1CC1)N1CCCCC1` [Example 4], the IC50 fell in the range of 0.003 to 0.01 µM.

Consider `O=C(c1sc2nc(-c3ccnc(C(F)(F)F)c3)cnc2c1C1CC1)N1CCCCC1` [Example 25], for which the IC50 is 0.01 to 0.02 µM. As for `CN1Cc2cc(-c3cnc4c(C(F)(F)F)c(C(=O)N5CCCCC5)sc4n3)ccc2C1=O` [Example 94], the figure is 0.003 to 0.01 µM; as for `N#Cc1c(C(=O)N2CCCCC2)sc2nc(-c3ccc(N4CCOCC4)nc3)cnc12` [Example 43], 0.01 to 0.02 µM. In the case of `O=C(c1sc2nc(-c3ccc4nccnc4c3)cnc2c1C1CC1)N1CCCCC1` [Example 20] it was 0.003 to 0.01 µM; in that of `O=C(c1sc2nc(-c3ccc(F)nc3)cnc2c1C1CC1)N1CCCCC1` [Example 27], 0.003 to 0.01 µM; in that of `CCc1c(C(=O)N2CCCCC2)sc2nc(-c3ccccc3)cnc12` [Example 97], 0.003 to 0.01 µM. Compound `Cn1cc(-c2cnc3c(C4CC4)c(C(=O)N4CCCCC4)sc3n2)cn1` [Example 10] gave an IC50 of 0.003 to 0.01 µM. Turning to `Cn1cc(-c2cnc3c(C4CC4)c(C(=O)N4CCCCC4)sc3n2)ccc1=O` [Example 18], the half-inhibitory concentration (IC50) was less than 0.003 µM. As for `CC(C)c1c(C(=O)N2CCCCC2)sc2nc(-c3ccccc3)cnc12` [Example 99], the figure is 0.01 to 0.02 µM; as for `O=C(c1sc2nc(-c3ccc4c(c3)OCO4)cnc2c1C1CC1)N1CCCCC1` [Example 14], 0.003 to 0.01 µM; as for `Nc1cc(-c2cnc3c(C(F)(F)F)c(C(=O)N4CCCCC4)sc3n2)ccn1` [Example 83], 0.003 to 0.01 µM.

`N#Cc1c(C(=O)N2CCCCC2)sc2nc(-c3cnc(N)nc3)cnc12` [Example 60] had an IC50 of 0.003 to 0.01 µM. Take `Cc1cc(-c2cnc3c(C#N)c(C(=O)N4CCCCC4)sc3n2)ccn1` [Example 57]: the IC50 was 0.003 to 0.01 µM.

Compound `O=C(c1sc2nc(-c3ccc4nccn4c3)cnc2c1C(F)(F)F)N1CCCCC1` [Example 77] had an IC50 of 0.003 to 0.01 µM. As for `COc1cc(-c2cnc3c(C(F)(F)F)c(C(=O)N4CCCCC4)sc3n2)ccn1` [Example 85], the figure is 0.003 to 0.01 µM; as for `O=C(c1sc2nc(-c3ccc4c(c3)OCCO4)cnc2c1C(F)(F)F)N1CCCCC1` [Example 76], 0.01 to 0.02 µM. In the case of `O=C(c1sc2nc(-c3ccncc3)cnc2c1C1CC1)N1CCCCC1` [Example 9] it was 0.003 to 0.01 µM; in that of `COc1ncc(-c2cnc3c(C#N)c(C(=O)N4CCCCC4)sc3n2)cn1` [Example 34, 3-(2-methoxypyrimidin-5-yl)-6-(piperidine-1-carbonyl)thieno[2,3-b]pyrazine-7-carbonitrile], 0.01 to 0.02 µM; in that of `O=C(c1sc2nc(-c3ccnc(F)c3)cnc2c1C(F)(F)F)N1CCCCC1` [Example 65], 0.003 to 0.01 µM.

In turn, `O=C(c1sc2nc(-c3ccc(N4CCOCC4)nc3)cnc2c1C1CC1)N1CCCCC1` [Example 19] returned an IC50 of 0.003 to 0.01 µM. In the case of `O=C(c1sc2nc(-c3cnc(N4CCOCC4)nc3)cnc2c1C1CC1)N1CCCCC1` [Example 3] it was less than 0.003 µM.

Regarding `O=C(c1sc2nc(-c3ccc(F)nc3)cnc2c1C(F)(F)F)N1CCCCC1` [Example 79], the IC50 lay within 0.003 to 0.01 µM.

`COc1cc(-c2cnc3c(C4CC4)c(C(=O)N4CCCCC4)sc3n2)ccn1` [Example 26] came in with an IC50 of less than 0.003 µM.

In the case of `CN1Cc2cc(-c3cnc4c(C5CC5)c(C(=O)N5CCCCC5)sc4n3)ccc2C1=O` [Example 32], the IC50 was less than 0.003 µM. For the compound `COc1cc(-c2cnc3c(C#N)c(C(=O)N4CCCCC4)sc3n2)ccn1` [Example 55], the IC50 lay within 0.01 to 0.02 µM. Take `O=C(c1sc2nc(-c3ccc4ncsc4c3)cnc2c1C(F)(F)F)N1CCCCC1` [Example 78]: the IC50 was 0.01 to 0.02 µM. In the case of `N#Cc1ccc(-c2cnc3c(C(F)(F)F)c(C(=O)N4CCCCC4)sc3n2)cn1` [Example 67] it was 0.01 to 0.02 µM; in that of `N#Cc1ccc(-c2cnc3c(C4CC4)c(C(=O)N4CCCCC4)sc3n2)cn1` [Example 11], 0.01 to 0.02 µM. Turning to `N#Cc1c(C(=O)N2CCCCC2)sc2nc(-c3ccc4ncsc4c3)cnc12` [Example 48], the IC50 was 0.003 to 0.01 µM. As for `Nc1ncc(-c2cnc3c(C4CC4)c(C(=O)N4CCCCC4)sc3n2)cn1` [Example 31], the figure is less than 0.003 µM; as for `Cc1cc(-c2cnc3c(C4CC4)c(C(=O)N4CCCCC4)sc3n2)ccn1` [Example 2, (7-cyclopropyl-3-(2-methylpyridin-4-yl)thieno[2,3-b]pyrazin-6-yl)(piperidin-1-yl)methanone], 0.003 to 0.01 µM. With `CN(C)c1ncc(-c2cnc3c(C4CC4)c(C(=O)N4CCCCC4)sc3n2)cn1` [Example 30], the IC50 is 0.003 to 0.01 µM. As for `N#Cc1c(C(=O)N2CCCCC2)sc2nc(-c3ccccc3)cnc12` [Example 33, 3-phenyl-6-(piperidine-1-carbonyl)thieno[2,3-b]pyrazine-7-carbonitrile], the figure is 0.01 to 0.02 µM; as for `O=C(c1sc2nc(-c3cccnc3)cnc2c1C(F)(F)F)N1CCCCC1` [Example 74], less than 0.003 µM; as for `O=C(c1sc2nc(-c3c[nH]c4ccccc34)cnc2c1C1CC1)N1CCCCC1` [Example 16], 0.01 to 0.02 µM.

`Cc1c(C(=O)N2CCCCC2)sc2nc(-c3ccccc3)cnc12` [Example 96] had an IC50 of 0.01 to 0.02 µM. As for `CN(C)c1ncc(-c2cnc3c(C(F)(F)F)c(C(=O)N4CCCCC4)sc3n2)cn1` [Example 88], the figure is 0.01 to 0.02 µM.

`O=C(c1sc2nc(-c3ccncc3)cnc2c1C(F)(F)F)N1CCCCC1` [Example 72] came in with an IC50 of 0.003 to 0.01 µM.

In turn, `Cc1cc(-c2cnc3c(C(F)(F)F)c(C(=O)N4CCCCC4)sc3n2)ccn1` [Example 87] returned an IC50 of less than 0.003 µM. For `N#Cc1c(C(=O)N2CCCCC2)sc2nc(-c3ccc4nccnc4c3)cnc12` [Example 45], the IC50 was 0.003 to 0.01 µM.

In the case of `O=C(c1sc2nc(-c3ccccc3)cnc2c1Br)N1CCCCC1` [Example 98], the half-inhibitory concentration (IC50) was less than 0.003 µM. In turn, `N#Cc1c(C(=O)N2CCCCC2)sc2nc(-c3cnc(N4CCOCC4)nc3)cnc12` [Example 59] displayed an IC50 of 0.003 to 0.01 µM. In the case of `Cc1noc(C)c1-c1cnc2c(C3CC3)c(C(=O)N3CCCCC3)sc2n1` [Example 8] it was 0.003 to 0.01 µM; in that of `O=C(c1sc2nc(-c3ccc4c(c3)OCCO4)cnc2c1C1CC1)N1CCCCC1` [Example 21], 0.003 to 0.01 µM; in that of `Cn1cc(-c2cnc3c(C(F)(F)F)c(C(=O)N4CCCCC4)sc3n2)cn1` [Example 68], 0.003 to 0.01 µM. In turn, `Nc1cc(-c2cnc3c(C4CC4)c(C(=O)N4CCCCC4)sc3n2)ccn1` [Example 28] came in with an IC50 of 0.003 to 0.01 µM. Consider `O=C(c1cc2ncc(-c3ccccc3)nc2s1)N1CCCCC1` [Example 100], for which the IC50 lay within 0.01 to 0.02 µM. With `CN1Cc2cc(-c3cnc4c(C#N)c(C(=O)N5CCCCC5)sc4n3)ccc2C1=O` [Example 62], the IC50 is 0.003 to 0.01 µM.

Regarding `Cc1ccc(-c2cnc3c(C4CC4)c(C(=O)N4CCCCC4)sc3n2)cn1` [Example 24], the IC50 was less than 0.003 µM.

Compound `COc1c(C(=O)N2CCCCC2)sc2nc(-c3ccccc3)cnc12` [Example 95] returned an IC50 of 0.003 to 0.01 µM. `O=C(c1sc2nc(-c3ccccc3)cnc2c1C1CC1)N1CCCCC1` [Example 1, (7-cyclopropyl-3-phenylthieno[2,3-b]pyrazin-6-yl)(piperidin-1-yl)methanone]: the concentration for half-maximal inhibition (IC50) is less than 0.003 µM. In the case of `O=C(c1sc2nc(-c3cccnc3)cnc2c1C1CC1)N1CCCCC1` [Example 7] it was 0.003 to 0.01 µM; in that of `O=C(c1sc2nc(-c3cncnc3)cnc2c1C(F)(F)F)N1CCCCC1` [Example 91], 0.003 to 0.01 µM; in that of `Cn1cc(-c2cnc3c(C(F)(F)F)c(C(=O)N4CCCCC4)sc3n2)ccc1=O` [Example 71], 0.003 to 0.01 µM. For `O=C(c1sc2nc(-c3cccs3)cnc2c1C(F)(F)F)N1CCCCC1` [Example 69], the IC50 is less than 0.003 µM. In turn, `O=C(c1sc2nc(-c3ccccc3)cnc2c1C(F)(F)F)N1CCCCC1` [Example 63, (3-phenyl-7-(trifluoromethyl)thieno[2,3-b]pyrazin-6-yl)(piperidin-1-yl)methanone] showed a half-inhibitory concentration (IC50) of 0.003 to 0.01 µM.

For the compound `O=C(c1sc2nc(-c3cncnc3)cnc2c1C1CC1)N1CCCCC1` [Example 22], the IC50 was less than 0.003 µM. On to `N#Cc1c(C(=O)N2CCCCC2)sc2nc(-c3cncs3)cnc12` [Example 56], for which the IC50 lay within 0.003 to 0.01 µM.

Broadly, the IC50 is the concentration that inhibits the measured activity by half. Low readings indicate greater potency in that assay, high ones weaker potency in that assay.
